{"source": "patent US5441894A", "about": "“Device containing a light absorbing element for automated chemiluminescent immunoassays” (Abbott Laboratories, priority 1993, dated 1995)", "system": "Anti-phencyclidine antibodies", "assay": "Ion-Capture Competitive Binding Assay For Phencyclidine (PCP) in Urine", "data": [{"smiles": "c1ccc(C2(N3CCCCC3)CCCCC2)cc1", "note": "[PCP, phencyclidine]", "values": [{"measurement": "% Bound", "setting": "25 ng/mL PCP in urine, Side A", "value": 83.00, "unit": "%"}, {"measurement": "% Bound", "setting": "25 ng/mL PCP in urine, Side B", "value": 85.50, "unit": "%"}, {"measurement": "% Bound", "setting": "60 ng/mL PCP in urine, Side A", "value": 94.60, "unit": "%"}, {"measurement": "% Bound", "setting": "60 ng/mL PCP in urine, Side B", "value": 94.19, "unit": "%"}, {"measurement": "% Bound", "setting": "120 ng/mL PCP in urine, Side A", "value": 97.44, "unit": "%"}, {"measurement": "% Bound", "setting": "120 ng/mL PCP in urine, Side B", "value": 97.54, "unit": "%"}, {"measurement": "% Bound", "setting": "250 ng/mL PCP in urine, Side A", "value": 99.28, "unit": "%"}, {"measurement": "% Bound", "setting": "250 ng/mL PCP in urine, Side B", "value": 99.32, "unit": "%"}, {"measurement": "% Bound", "setting": "500 ng/mL PCP in urine, Side A", "value": 100.00, "unit": "%"}, {"measurement": "% Bound", "setting": "500 ng/mL PCP in urine, Side B", "value": 100.00, "unit": "%"}]}]}
